Series [1] in a line: in vitro. The series is classed as cell-based, human. The conditions noted are these: human, CC50 A549. How it is done: Cytotoxicity—Cytotoxicity assays were carried out using human lung carcinoma cell line A549, as described (Chen et al., “Selective Inhibition of the West Nile Virus Methyltransferase by Nucleoside Analogs,” Antiviral Research 97(3):232-239 (2013), which is hereby incorporated by reference in its entirety). Briefly, the A549 cells (5×10^3) were incubated with/without compounds in a 96-well plate at 37° C. for 48 h. Cell viability was determined using the MTT assay (ATCC) as was described previously (Chen et al., “Selective Inhibition of the West Nile Virus Methyltransferase by Nucleoside Analogs,” Antiviral Research 97(3):232-239 (2013) and Brecher et al., “Identification and Characterization of Novel Broad-Spectrum Inhibitors of the Flavivirus Methyltransferase,” ACS Infectious Diseases 1(8):340-349 (2015), both of which are hereby incorporated by reference in their entirety). N=3.
Cytotoxicity—Cytotoxicity assays were carried out using human lung carcinoma cell line A549, as described. Chen et al., “Selective Inhibition of the West Nile Virus Methyltransferase by Nucleoside Analogs,” Antiviral Res. 97:232-9 (2013), which is hereby incorporated by reference in its entirety. Briefly, the A549 cells (5×10^3) were incubated with/without compounds in a 96-well plate at 37° C. for 48 h. Cell viability was determined using the MTT assay (ATCC) as was described previously (Chen et al., “Selective Inhibition of the West Nile Virus Methyltransferase by Nucleoside Analogs,” Antiviral Research 97(3):232-239 (2013) and Brecher et al., “Identification and Characterization of Novel Broad-Spectrum Inhibitors of the Flavivirus Methyltransferase,” ACS Infectious Diseases 1(8):340-349 (2015), both of which are hereby incorporated by reference in their entirety). N=3.

Series [2] concerns the target T1, Prp8 intein (Cryptococcus gattii, UniProt E6R027). Put plainly: Split nanoluciferase NnLuc-Prp8 intein splicing assay. The format is biochemical. How it is done:
(§1) The constructs for Cys-free (Cf) GFP-Prp8 and Cys-free nanoluciferase NnLuc-Prp8 were codon-optimized, synthesized, and cloned into the pET28a vector using the NcoI and XhoI sites by Gene Universal (Gene Universal, Newark Del.). […] The expression, refolding and purification of the CfGFP-Prp8 and NnLuc-Prp8 fusion proteins were carried out as described previously. […] Microbes. Infect.
Split luciferase RLuc-Prp8 and NnLuc-Prp8 intein splicing assays—The split RLuc-Prp8 intein splicing assay was carried out and monitored using a Veritas luminometer, as described previously. […] Microbes. Infect. […] For NnLuc-Prp8 intein splicing assay, the NnLuc-prp8 is diluted in assay buffer (50 mM Tris, 0.1% BSA, 1 mM EDTA, pH 7.4) and 50 ul is added to each well in 96 well black plates. Test molecules or the solvent was added and incubated for 30 to 60 min. A splicing inducer TCEP (50 ul, 100 μM) is added and incubated for 24 h. Luciferase substrate (Furimazine, 25 ul 1:10,000 diluted) is added and luminescence is read using a luminescence reader. IC50 is calculated using Graphpad prism.

For series [3], the system named is C. neoformans H99 strain. Put plainly: Fungal susceptibility test, broth microdilution MIC. The series is classed as cell-based, Cryptococcus neoformans. The settings on record: Cryptococcus neoformans, H99STRAIN; C. neoformans H99, microbroth dilution; read-out: MIC H99. How it is done: Fungal susceptibility test—The fungal susceptibility test was carried out with a compound concentration series as described. […] The broth microdilution method was used to determine the compound MIC values against C. neoformans.
Fungal susceptibility test—The fungal susceptibility test was carried out with a compound concentration series as described. […] Microbes. Infect. […] The broth microdilution method was used to determine the compound MIC values against C. neoformans.

Series [4] concerns the target T1, Prp8 intein. Put plainly: Split Cys-free (Cf) GFP-Prp8 intein splicing assay. The format is biochemical. The conditions noted are these: read-out: IC50 CfGFP-Prp8 (converted). How it is done:
as §1
Split GFP-Prp8 and CJGFP-Prp8 intein splicing assays—Using black and clear bottom 96-well plates, the DPNB-treated, -refolded and -concentrated GFP-Prp8 or CfGFP-Prp8 fusion protein (0.5 μM) was incubated with compounds or Dimethylsulfoxide (DMSO) solvent control for 30 min at 25° C. in a 100 μl intein splicing buffer (20 mM Bis-tris propane, 0.5 M NaCl, 0.5 M arginine, 1 mM EDTA, and 0.05% CHAPS). Then 100 μl 2×TCEP was added to a final concentration of 20 μM. The reactions were incubated at 25° C. overnight. […] Two readings were taken, one prior to addition of TCEP (I0) and one after incubation overnight with TCEP (If). Fluorescence/luminescence differences (ΔFluorescence or ΔLuminescence) were defined as If−I0 for each well. […] DMSO control served as 100% splicing activity.

Molecules are shown by their SMILES. Values after ≈ are worked out from the molar mass of the structure shown.

T1 sequence (E6R027 entry or part of it): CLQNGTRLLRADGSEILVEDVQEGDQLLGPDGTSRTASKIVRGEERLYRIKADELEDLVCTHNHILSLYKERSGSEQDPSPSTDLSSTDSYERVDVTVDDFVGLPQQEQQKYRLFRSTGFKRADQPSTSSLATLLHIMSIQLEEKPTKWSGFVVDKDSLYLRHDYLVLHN

`O=C(Nc1ccccc1F)c1nnsc1S(=O)(=O)c1ccc(Cl)cc1` [JMX872, 5-((4-Chlorophenyl)sulfonyl)-N-(2-fluorophenyl)-1,2,3-thiadiazole-4-carboxamide] came in with a 50% cytotoxic concentration (CC50) at 48 h in series [1] of 162 µM. Further, the IC50 was 31.8 µM in series [2] and 28.3 µM in series [4]. Further, the minimum inhibitory concentration (MIC) in series [3] is over 50 µM.

Compound `O=C(Nc1ccc(F)c(F)c1)c1nnsc1S(=O)(=O)c1ccc(Cl)cc1` [JMX876, 5-((4-Chlorophenyl)sulfonyl)-N-(3,4-difluorophenyl)-1,2,3-thiadiazole-4-carboxamide] showed a CC50 at 48 h in series [1] of 163 µM. Besides, the IC50 is 22 µM in series [2] and 33.5 µM in series [4]. Further, the MIC in series [3] was 3.12 µM (≈ 1.3 µg/mL).

Compound `Cc1ccc(NC(=O)c2nnsc2S(=O)(=O)c2ccc(Cl)cc2)cc1` [JMX1033, 5-((4-chlorophenyl)sulfonyl)-N-(p-tolyl)-1,2,3-thiadiazole-4-carboxamide] returned a half-maximal cytotoxic concentration (CC50) at 48 h in series [1] of 156 µM. Besides, the IC50 in series [2] was 45.9 µM; in series [4], 35.2 µM. In addition, in series [3], the MIC is over 50 µM.

In series [1], `Cc1ccc(NC(=O)c2nnsc2[S+]([O-])c2ccc(Cl)cc2)cc1` (stereo not shown) [JMX1033-2] returned a CC50 at 48 h of 74.6 µM. Moreover, the half-inhibitory concentration (IC50) in series [2] is 3.8 µM; in series [4] it was 47.3 µM. Moreover, the MIC in series [3] is over 50 µM.

`O=C(Nc1ccc(Br)cc1)c1nnsc1S(=O)(=O)c1ccc(Cl)cc1` [JMX1034, N-(4-Bromophenyl)-5-((4-chlorophenyl)sulfonyl)-1,2,3-thiadiazole-4-carboxamide] showed a half-maximal cytotoxic concentration (CC50) at 48 h in series [1] of 84.8 µM. Also, the results for the IC50 in series [2] and in series [4] were 15.4 µM and 33.1 µM, respectively. Further, the minimum inhibitory concentration (MIC) in series [3] is over 50 µM.

In series [1], `O=C(Nc1ccccc1)c1nnsc1S(=O)(=O)c1ccc(Cl)cc1` [JMX1035, 5-((4-Chlorophenyl)sulfonyl)-N-phenyl-1,2,3-thiadiazole-4-carboxamide] came in with a CC50 at 48 h of 84.1 µM. The IC50 in series [2] was 33.9 µM; in series [4], 38.4 µM. Moreover, in series [3], the MIC was found to be 6.25 µM (≈ 2.37 µg/mL).

The compound `O=C(Nc1cc(F)cc(Cl)c1)c1nnsc1S(=O)(=O)c1ccc(Cl)cc1` [JMX1036, N-(3-Chloro-5-fluorophenyl)-5-((4-chlorophenyl)sulfonyl)-1,2,3-thiadiazole-4-carboxamide] returned a CC50 at 48 h in series [1] of 70.9 µM. The figures for the IC50 in series [2] and in series [4] were 21.4 µM and 32.9 µM, respectively. For the same compound, the MIC in series [3] came to 1.56 µM (≈ 0.674 µg/mL).

For the compound `O=C(Nc1ccc(F)c(Cl)c1)c1nnsc1S(=O)(=O)c1ccc(Cl)cc1` [JMX1037, N-(3-Chloro-4-fluorophenyl)-5-((4-chlorophenyl)sulfonyl)-1,2,3-thiadiazole-4-carboxamide], half-maximal cytotoxicity in series [1] (CC50 at 48 h) was put at 63.2 µM. Besides, the IC50 in series [2] is 14.1 µM; in series [4] it was 31.4 µM. Besides, in series [3], the MIC was 25 µM (≈ 10.8 µg/mL).

In series [1], `O=C(Nc1cc(F)cc(F)c1)c1nnsc1S(=O)(=O)c1ccc(Cl)cc1` [JMX1038, 5-((4-Chlorophenyl)sulfonyl)-N-(3,5-difluorophenyl)-1,2,3-thiadiazole-4-carboxamide] returned a CC50 at 48 h of 54.2 µM. Further, the IC50 in series [2] is 37.4 µM; in series [4], 37.1 µM. In addition, the MIC in series [3] is over 50 µM.

For the compound `O=C(Nc1cc(F)cc(C(F)(F)F)c1)c1nnsc1S(=O)(=O)c1ccc(Cl)cc1` [JMX1040, 5-((4-chlorophenyl)sulfonyl)-N-(3-fluoro-5-(trifluoromethyl)phenyl)-1,2,3-thiadiazole-4-carboxamide], the CC50 at 48 h in series [1] turned out to be 56.3 µM. Moreover, the concentration for half-maximal inhibition (IC50) in series [2] was 20.6 µM; in series [4], 32.8 µM. For the same compound, the MIC in series [3] is 3.12 µM (≈ 1.45 µg/mL).

For `O=C(Nc1cc(C(F)(F)F)cc(C(F)(F)F)c1)c1nnsc1S(=O)(=O)c1ccc(Cl)cc1` [JMX1041, N-(3,5-Bis(trifluoromethyl)phenyl)-5-((4-chlorophenyl)sulfonyl)-1,2,3-thiadiazole-4-carboxamide], half-maximal cytotoxicity in series [1] (CC50 at 48 h) was put at 66.7 µM. Besides, the IC50 in series [2] is 18.5 µM; in series [4], 37.9 µM. Also, the MIC in series [3] was over 50 µM.

Consider `O=C(Nc1ccc(C(F)(F)F)cc1Cl)c1nnsc1S(=O)(=O)c1ccc(Cl)cc1` [JMX1042, N-(2-Chloro-4-(trifluoromethyl)phenyl)-5-((4-chlorophenyl)sulfonyl)-1,2,3-thiadiazole-4-carboxamide], for which the CC50 at 48 h in series [1] came to 98.7 µM. Also, the half-maximal inhibitory concentration (IC50) in series [2] was 10.9 µM; in series [4], 41.5 µM. Moreover, in series [3], the minimal inhibitory concentration (MIC) was over 50 µM.

In the case of `O=C(Nc1ccc([N+](=O)[O-])cc1F)c1nnsc1S(=O)(=O)c1ccc(Cl)cc1` [JMX1043, 5-((4-Chlorophenyl)sulfonyl)-N-(2-fluoro-4-nitrophenyl)-1,2,3-thiadiazole-4-carboxamide], in series [1], the CC50 at 48 h is 66.9 µM. The figures for the IC50 in series [2] and in series [4] were 19.6 µM and 38.1 µM, respectively. Further, in series [3], the MIC is over 50 µM.

In turn, `O=C(Nc1cc(F)c(F)c(F)c1)c1nnsc1S(=O)(=O)c1ccc(Cl)cc1` [JMX1044, 5-((4-Chlorophenyl)sulfonyl)-N-(3,4,5-trifluorophenyl)-1,2,3-thiadiazole-4-carboxamide] displayed a CC50 at 48 h in series [1] of 47.8 µM. Moreover, the IC50 in series [2] was 16.3 µM; in series [4] it was 31.8 µM. The MIC in series [3] was over 50 µM.

In turn, `O=C(Nc1cc(F)c(F)c(F)c1)c1nnsc1[S+]([O-])c1ccc(Cl)cc1` (stereo not shown) [JMX1044-2, 5-((4-Chlorophenyl)sulfinyl)-N-(3,4,5-trifluorophenyl)-1,2,3-thiadiazole-4-carboxamide] displayed a CC50 at 48 h in series [1] of 47.5 µM. Further, the 50% inhibitory concentration (IC50) was 4.4 µM in series [2] and 26.9 µM in series [4]. Moreover, the minimum inhibitory concentration (MIC) in series [3] is over 50 µM.

In series [1], `O=C(Nc1c(F)cc(F)cc1F)c1nnsc1S(=O)(=O)c1ccc(Cl)cc1` [JMX1045, 5-((4-Chlorophenyl)sulfonyl)-N-(2,4,6-trifluorophenyl)-1,2,3-thiadiazole-4-carboxamide] had a CC50 at 48 h of 47.9 µM. Further, the IC50 was 15.9 µM in series [2] and 34.3 µM in series [4]. Also, in series [3], the MIC was over 50 µM.

In turn, `O=C(Nc1c(F)cc(F)cc1F)c1nnsc1[S+]([O-])c1ccc(Cl)cc1` (stereo not shown) [JMX1045-2, 5-((4-Chlorophenyl)sulfinyl)-N-(2,4,6-trifluorophenyl)-1,2,3-thiadiazole-4-carboxamide] had a CC50 at 48 h in series [1] of 61 µM. In addition, the IC50 was 8.6 µM in series [2] and 27.4 µM in series [4]. Moreover, in series [3], the MIC worked out at 3.12 µM (≈ 1.3 µg/mL).

As for `O=C(Nc1ccc(Cl)c(F)c1)c1nnsc1S(=O)(=O)c1ccc(Cl)cc1` [JMX1046, N-(4-Chloro-3-fluorophenyl)-5-((4-chlorophenyl)sulfonyl)-1,2,3-thiadiazole-4-carboxamide], it took 145 µM to reach half-maximal cytotoxicity in series [1] (CC50 at 48 h). Further, the 50% inhibitory concentration (IC50) in series [2] is 20.1 µM; in series [4], 34.1 µM. For the same compound, in series [3], the MIC is over 50 µM.

In turn, `O=C(Nc1ccc(Cl)c(F)c1)c1nnsc1[S+]([O-])c1ccc(Cl)cc1` (stereo not shown) [JMX1046-2, N-(4-Chloro-3-fluorophenyl)-5-((4-chlorophenyl)sulfinyl)-1,2,3-thiadiazole-4-carboxamide] yielded a CC50 at 48 h in series [1] of 149 µM. Also, the IC50 in series [2] was 7.5 µM; in series [4], 32.2 µM. Moreover, in series [3], the MIC came out at 1.56 µM (≈ 0.649 µg/mL).

By CC50 is commonly meant the concentration giving 50% cytotoxicity. Read a high CC50 as better tolerance by the cells. Broadly, the IC50 is the point on the concentration scale where inhibition reaches its midpoint. As usually defined, the MIC is the least concentration at which growth counts as inhibited.

These data come from patent publication US20230233533A1, “COMPOSITIONS, METHODS OF TREATING AND PREVENTING FUNGAL INFECTIONS, AND METHODS OF INHIBITING PRP8 INTEIN EXPRESSION” (Health Research, Inc., priority 2020, published 2023).
